{"source": "patent US20230227838A1", "about": "“ENHANCED CELL SURVIVAL AGAINST BIOTIC AND ABIOTIC STRESSES THROUGH SALICYLICK ACID-INDUCED NPR1 CONDENSATES” (priority 2020, published 2023)", "key": {"[1]": {"target": "T1, endogenous NPR1 (Arabidopsis thaliana, UniProt P93002)", "T1 construct": "from tissue; host or cells: leaf tissue of three-week-old Arabidopsis Col-0 plants", "T1 sequence (P93002 1-593)": "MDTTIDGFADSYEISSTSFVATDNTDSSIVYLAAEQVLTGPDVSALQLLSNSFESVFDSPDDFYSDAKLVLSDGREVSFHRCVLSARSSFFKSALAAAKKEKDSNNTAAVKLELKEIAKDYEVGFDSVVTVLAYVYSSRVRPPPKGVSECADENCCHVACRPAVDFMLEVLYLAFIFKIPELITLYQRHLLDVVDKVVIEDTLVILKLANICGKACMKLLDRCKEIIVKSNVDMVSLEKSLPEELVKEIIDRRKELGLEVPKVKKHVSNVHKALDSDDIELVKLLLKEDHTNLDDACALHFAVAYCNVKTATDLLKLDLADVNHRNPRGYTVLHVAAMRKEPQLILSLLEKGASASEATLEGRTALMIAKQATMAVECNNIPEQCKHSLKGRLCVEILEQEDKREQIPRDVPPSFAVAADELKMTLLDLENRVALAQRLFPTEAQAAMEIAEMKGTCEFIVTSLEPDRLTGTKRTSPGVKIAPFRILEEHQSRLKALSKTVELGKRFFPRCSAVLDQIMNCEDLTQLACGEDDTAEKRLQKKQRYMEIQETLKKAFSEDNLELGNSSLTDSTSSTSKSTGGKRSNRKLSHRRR", "test": "Cell fractionation of endogenous NPR1 (cytoplasmic/nuclear)", "assay_type": "in vivo", "conditions": "6 hr, Col-0", "protocol": "Cell fractionation. Cytoplasmic and nuclear proteins were sequentially isolated from three-week-old Arabidopsis (Col-0) plants using 1 g of leaf tissue and a sucrose gradient protocol described previously with modifications. Tissue was homogenized in lysis buffer (20 mM Tris-HCl, pH 7.5, 20 mM KCl, 2 mM EDTA, 2.5 mM MgCl2, 25% glycerol, 0.25 M Sucrose) supplemented with 100 μM MG132, EDTA-free protease inhibitor cocktail, 1 mM PMSF and 5 mM DTT. The lysate was filtered through a 70 μm filter and centrifuged at 20,000 g for 15 min at 4° C., and the supernatant was collected (cytoplasmic fraction). The pellet was washed four times with 5 ml of NRBT buffer (20 mM Tris-HCl, pH 7.4, 25% glycerol, 2.5 mM MgCl2, and 0.2% Triton X-100). After the last wash, the pellet was resuspended with 500 μl of NRB2 buffer (20 mM Tris-HCl, pH 7.5, 0.25 M Sucrose, 10 mM MgCl2, 0.5% Triton X-100) supplemented with protease inhibitor cocktail and 5 mM BME. The obtained suspension was layered at 1:1 on top of the NRB3 buffer (20 mM Tris-HCl, pH 7.5, 1.7 M Sucrose, 10 mM MgCl2, 0.5% Triton X-100) supplemented with protease inhibitor cocktail and 5 mM BME, centrifuged at 16,000 g for 45 min at 4° C. The top layer was removed and the pellet was resuspended with 200 μl of plant extraction buffer containing 1% Triton X-100, protease inhibitor cocktail and 5 mM BME (nuclear fraction). […]"}, "[2]": {"tested_on": "WRKY70-GFP", "test": "Stability and ubiquitination of WRKY70-GFP", "assay_type": "in vivo, Arabidopsis thaliana", "protocol": "Chemical treatment, pathogen infection and cell death assays. […] At 2 days, the bacterial colonies were scored.\nProtein analysis and IP. Recombinant protein analysis was performed using transient expression in N. benthamiana, or stable over-expression in transgenic Arabidopsis, or expression in E. coli. Total protein extraction from plants was performed by homogenizing leaf tissue in the plant extraction buffer [50 mM Tris-HCl (pH 7.5), 150 mM NaCl, 5 mM EDTA, 0.2% Triton X-100, 0.2% Nonidet P-40] supplemented with 1 mM PMSF, 100 μM MG132, and EDTA-free protease inhibitor cocktail (Roche). For ubiquitinated protein analysis in plants, 100 μM of DUB (deubiquitinase) inhibitor (LifeSensors) and 10 mM NEM were added. Next, the lysates were cleared by centrifugation at 14,000 rpm for 15 min followed by filtering through a 0.2 μm filter. […] Pull-downs or IP experiments were done on total protein extracts by incubating protein samples in the lysis buffer overnight with indicated affinity tag or antibody conjugated to agarose or magnetic beads: GFP-trap agarose beads (Chromotek) for GFP fusions; RFP-trap agarose beads (Chromotek) for mCherry fusions; anti-HA magnetic beads (ThermoFisher) for HA tag fusions; anti-DYKDDDDK coupled magnetic agarose (ThermoFisher) for FLAG tag fusions; and glutathione magnetic agarose (ThermoFisher) for GST fusions. […]"}}}
{"smiles": "O=C(O)c1ccccc1O", "note": "[SA, salicylic acid]", "values": [{"measurement": "subcellular accumulation of endogenous NPR1", "setting": "[1]; 1 mM SA", "value": "more NPR1 accumulated in the cytoplasm"}, {"measurement": "subcellular accumulation of endogenous NPR1", "setting": "[1]; 0.1 and 0.5 mM SA", "value": "increased nuclear accumulation"}, {"measurement": "ubiquitination of WRKY70-GFP", "setting": "[2]; 1 mM SA for 24 h, WT, not npr1-2", "value": "increased ubiquitination of WRKY70-GFP"}, {"measurement": "WRKY70-GFP protein level", "setting": "[2]; 1 mM SA for 24 hr, NPR1- and proteasome-dependent", "value": "reduced"}]}
